Source: patent US5304540A, “Pharmaceutical bacteriocin compositions and methods for using the same” (Applied Microbiology, Inc., priority 1993, dated 1994)
Like-named read-outs stand apart in the source and are kept apart here.

Tests used:
E. coli strain ATCC8739 = experiment: Nisin-citrate agar growth inhibition assay; type: cell-based, Escherichia coli
Method: The nisin-citrate agar assay is performed as follows. E. coli is resuspended to an optical density of 1.0 at A600. A 100 μl sample of the bacterial suspension is spread uniformly on Trypticase Soy nutrient agar (TSA) supplemented with various concentrations of citrate (e.g. 0.1%, 0.3%, 1.0%, 3.0%) and incubated for 1 hour at 37° C. A nisin stock solution and serial dilutions thereof in 0.1% bovine serum albumin (BSA), are prepared and 5 μl are taken from each and deposited onto the growing bacterial lawn. The TSA plates are then incubated for 24 hours at 37° C. After 24 hours at 37° C., E. coli grown on TSA supplemented with citrate form a confluent lawn. […] The effectiveness of nisin against the gram negative bacteria can be assessed from determining the minimum amount of nisin required to produce a clear zone of growth inhibition. As the concentration of citrate in the nutrient agar is increased, less nisin is required to inhibit the growth of E. coli, as is illustrated by the data shown in Table 6.

Escherichia coli = experiment: Germicidal suspension assay, E. coli; type: cell-based; conditions: for % survival at 1 min: 37° C.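 For all read-outs here: surviving cells were scored as colonies on nutrient agar after 24 h at 37° C, survival given as percent of untreated controls.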
Method: E. coli cells from an overnight Trypticase soy nutrient agar (TSA) were resuspended to a density measured as an absorbance of 1.0 at 600 nm in sterile ddH2 O. The reaction of the cells with each of the bactericidal test formulations analyzed was started by addition of 30 μl of cells to 970 μl of test formulation. The reaction mixture was incubated at 37° C for at least 1 minute and then centrifuged in a microfuge for 1 minute. The cell pellet was washed by resuspension in 1 ml of neutralization buffer. (The neutralization buffer: 50 mM Tris-HCl, pH 7.0, 5 mM MgSO4, 20 mM CaCl2, 0.1 M NaCl and 0.1% gelatin was prepared by first making Tris buffer and adjusting the pH. The salts and gelatin were then added and the solution stirred with heat until the solution was clear. The solution was then autoclaved for 20 min. The neutralization buffer was used without dilution.) The cells were centrifuged in a microfuge for 1 minute and resuspended in 1 ml of neutralization buffer. The viable count was determined by spreading 100 μl of bacterial suspension and serial dilutions thereof in neutralization buffer on nutrient agar and scoring surviving colonies after 24 h at 37° C. Percent survival relative to untreated controls was calculated from the scored values.

nisin was tested, and the “Nisin NIC (nominal inhibitory concentration of nisin minimally required to prevent growth)” value (E. coli strain ATCC8739; Trypticase Soy Agar supplemented with 0.1% citrate) was 370 µg/mL, the “Nisin NIC (nominal inhibitory concentration of nisin minimally required to prevent growth)” value (E. coli strain ATCC8739; Trypticase Soy Agar supplemented with 0.3% citrate) was 123 µg/mL and the “Nisin NIC (nominal inhibitory concentration of nisin minimally required to prevent growth)” value (E. coli strain ATCC8739; Trypticase Soy Agar supplemented with 1.0% citrate) was 13.7 µg/mL. The “Nisin NIC (nominal inhibitory concentration of nisin minimally required to prevent growth)” value (E. coli strain ATCC8739; Trypticase Soy Agar supplemented with 3.0% citrate) was 0.06 µg/mL, the “Nisin NIC (nominal inhibitory concentration of nisin minimally required to prevent growth)” value (E. coli strain ATCC8739; Trypticase Soy Agar, 0% citrate) was 3,333 μg/ml and the “% survival at 5 min” value (Helicobacter pylori; pH 7) was 5.88. For the same substance, the “% survival at 5 min” value (Helicobacter pylori; strain ATCC43504, pH 5.0, citrate 0, nisin 100 μg/ml, second of two experiments (initial 3.26 × 10^5 cfu/ml)) was 0.043%, the “% survival at 5 min” value (Helicobacter pylori; strain ATCC43504, pH 7.0, citrate 0, nisin 100 μg/ml, initial 9.62 × 10^4 cfu/ml) was 2.08% and the “% survival at 5 min” value (Helicobacter pylori; strain ATCC43579, citrate 0, nisin 100 μg/ml, pH 5.0, average of 5 experiments) was 0.30%. For the same substance, the “% survival at 5 min” value (Helicobacter pylori; strain ATCC43579, pH 5.0, citrate 0, nisin 100 μg/ml, 37° C., initial 1.04 × 10^4 cfu/ml) was 9.62%, the “% survival at 5 min” value (Helicobacter pylori; strain ATCC43579, pH 5.0, nisin 10 μg/ml, citrate 0.1% where present, 37° C.) was 1.31% and the “% survival at 5 min” value (Helicobacter pylori; strain ATCC43579, pH 5.0, nisin 30 μg/ml, citrate 0.1% where present, 37° C.) was 0.39%. The “% survival at 5 min” value (Helicobacter pylori; strain ATCC43579, pH 5.0, nisin 100 μg/ml, citrate 0.1% where present, 37° C.) was 0.085%, the “% survival at 5 min” value (Helicobacter pylori; strain ATCC43579, pH 5.0, nisin 300 μg/ml, citrate 0.1% where present, 37° C.) was 0.0056% and the “% survival at 5 min” value (Helicobacter pylori; strain ATCC43579, pH 7.0, citrate 0, nisin 100 μg/ml, 37° C.) was 0.78%. The “% survival at 1 min” value (Escherichia coli; 0.1% w/v acetate pH 3.5, nisin 100 μg/ml and/or EDTA 1.0 mM where present, initial 2 × 10^7 cfu/ml) was 9.6%, the “% survival at 1 min” value (Escherichia coli; 0.1% w/v lactate pH 3.5, nisin 100 μg/ml and/or EDTA 1.0 mM where present, initial 5 × 10^7 cfu/ml) was 4.4% and the “% survival at 1 min” value (Escherichia coli; 0.1% w/v succinate pH 3.5, nisin 100 μg/ml and/or EDTA 1.0 mM where present, initial 3.4 × 10^6 cfu/ml) was 18.3%. For the same substance, the “% survival at 1 min” value (Escherichia coli; 0.3% w/v acetate pH 3.5, nisin 100 μg/ml and/or EDTA 1.0 mM where present, initial 2 × 10^7 cfu/ml) was 70%, the “% survival at 1 min” value (Escherichia coli; 0.3% w/v lactate pH 3.5, nisin 100 μg/ml and/or EDTA 1.0 mM where present, initial 5 × 10^7 cfu/ml) was 0.24% and the “% survival at 1 min” value (Escherichia coli; 0.3% w/v succinate pH 3.5, nisin 100 μg/ml and/or EDTA 1.0 mM where present, initial 3.4 × 10^6 cfu/ml) was 66.6%. For the same substance, the “% survival at 1 min” value (Escherichia coli; 1.0% w/v acetate pH 3.5, nisin 100 μg/ml and/or EDTA 1.0 mM where present, initial 2 × 10^7 cfu/ml) was 100%, the “% survival at 1 min” value (Escherichia coli; 1.0% w/v lactate pH 3.5, nisin 100 μg/ml and/or EDTA 1.0 mM where present, initial 5 × 10^7 cfu/ml) was 17.8% and the “% survival at 1 min” value (Escherichia coli; 1.0% w/v succinate pH 3.5, nisin 100 μg/ml and/or EDTA 1.0 mM where present, initial 3.4 × 10^6 cfu/ml) was 83.4%. The “% survival at 1 min” value (Escherichia coli; 3.0% w/v acetate pH 3.5, nisin 100 μg/ml and/or EDTA 1.0 mM where present, initial 2 × 10^7 cfu/ml) was 100%, the “% survival at 1 min” value (Escherichia coli; 3.0% w/v lactate pH 3.5, nisin 100 μg/ml and/or EDTA 1.0 mM where present, initial 5 × 10^7 cfu/ml) was 26.7% and the “% survival at 1 min” value (Escherichia coli; 3.0% w/v succinate pH 3.5, nisin 100 μg/ml and/or EDTA 1.0 mM where present, initial 3.4 × 10^6 cfu/ml) was 28.4%. The “survival of E. coli on exposure to the agent by itself” value (Escherichia coli; agent by itself) was “unaffected”, the “% survival at 1 min” value (Escherichia coli; pH 2.0, 20 mM Na acetate buffer, nisin 100 μg/ml and/or EDTA 1.0 mM, initial 4 × 10^7 cfu/ml) was 0.28% and the “% survival at 1 min” value (Escherichia coli; pH 2.5, 20 mM Na acetate buffer, nisin 100 μg/ml and/or EDTA 1.0 mM, initial 4 × 10^7 cfu/ml) was 3.37%. The “% survival at 1 min” value (Escherichia coli; pH 3.0, 20 mM Na acetate buffer, nisin 100 μg/ml and/or EDTA 1.0 mM, initial 4 × 10^7 cfu/ml) was 4.43%, the “% survival at 1 min” value (Escherichia coli; pH 3.5, 20 mM Na acetate buffer, nisin 100 μg/ml and/or EDTA 1.0 mM, initial 4 × 10^7 cfu/ml) was 100% and the “% survival at 1 min” value (Escherichia coli; pH 4.0, 20 mM Na acetate buffer, nisin 100 μg/ml and/or EDTA 1.0 mM, initial 4 × 10^7 cfu/ml) was 100%.
